Earlier results in the PKSmart pharmacokinetics tables (Seal et al. 2025).

Assays:
[1] = Lombardo, Berellini, Obach 2018, Drug Metab Dispos 46:1466, doi 10.1124/dmd.118.082966; conditions: human; for MRT / Vd / clearance / half-life: in vivo, iv; for fraction unbound: plasma
[2] = Lombardo et al. 2013, J Clin Pharmacol 53:178, doi 10.1177/0091270012440282; conditions: for Vd / clearance: in vivo, iv; for fraction unbound: plasma

Row | Compound | MRT [1] [h] | Vd [1] [L/kg] | clearance [1] [mL/min/kg] | half-life [1] [min] | Vd ([2]; dog) [L/kg] | clearance ([2]; dog) [mL/min/kg] | fraction unbound ([2]; dog) | Vd ([2]; rat) [L/kg] | clearance ([2]; rat) [mL/min/kg] | fraction unbound ([2]; rat) | fraction unbound [1] | Vd ([2]; monkey) [L/kg] | clearance ([2]; monkey) [mL/min/kg] | fraction unbound ([2]; monkey)
1 | COC(=O)C1=C(C)NC(C)=C(C(=O)OCC(C)C)C1c1ccccc1[N+](=O)[O-] (centres undefined) | 6.5 | 5.5 | 15 | 660 | 4.1 | 37.2 | 0.028 | 0.89 | 45.8 |  |  |  |  | 
2 | COC(=O)C1=C(C)NC(C)=C(C(=O)OC)C1c1ccccc1[N+](=O)[O-] |  |  |  | 114 | 1.15 |  |  | 0.27 |  | 0.035 |  |  |  | 
3 | CC(CC(c1ccccc1)c1ccccc1)NC(C)(C)C (centres undefined) | 81 | 5.1 | 1.1 | 3360 |  | 41 | 0.14 |  |  |  |  |  |  | 
4 | CO[C@]12CC[C@@]3(C[C@@H]1[C@](C)(O)C(C)(C)C)[C@H]1Cc4ccc(O)c5c4[C@@]3(CCN1CC1CC1)[C@H]2O5 |  |  |  | 192 |  |  |  | 8.37 | 0.05 |  |  |  |  | 
5 | COC(=O)C(c1ccccc1)C1CCCCN1 (centres undefined) | 4.5 | 2.2 | 9.42 | 288 |  |  |  | 3 | 53 |  | 0.85 |  |  | 
6 | OCCN1CCN(CCCN2c3ccccc3Sc3ccc(C(F)(F)F)cc32)CC1 | 5 | 2.9 | 9.7 | 738 | 5.5 | 15.4 |  |  |  |  | 0.04 |  |  | 
7 | CC(C)N(CCC(C(N)=O)(c1ccccc1)c1ccccn1)C(C)C (centres undefined) | 9.6 | 0.52 | 0.9 | 420 | 1.27 | 9.87 |  |  | 34 |  | 0.16 |  |  | 
8 | Nc1nc(NC2CC2)c2ncn([C@H]3C=C[C@@H](CO)C3)c2n1 | 1.1 | 0.84 | 13 | 60 |  |  |  |  | 30 |  | 0.5 |  |  | 
9 | C[C@@H]1CN(c2c(F)c(N)c3c(=O)c(C(=O)O)cn(C4CC4)c3c2F)C[C@H](C)N1 | 24 | 3.9 | 2.7 | 1200 |  |  |  | 3.5 | 19.6 | 0.5 |  |  |  | 
10 | O=C(O)c1cc(-c2ccc(F)cc2F)ccc1O | 14 | 0.097 | 0.1 | 600 |  |  |  | 0.15 | 1.52 |  |  |  |  | 
11 | COc1ccc(Cl)cc1[C@]1(F)C(=O)Nc2cc(C(F)(F)F)ccc21 | 11 | 10 | 15 | 2220 | 4.06 | 3.5 | 0.0067 | 6.3 | 43 |  | 0.0038 |  |  | 
12 | Cc1cccc(C)c1NC(=O)NCCCNC(C)C | 5.2 | 1.4 | 4.5 | 300 | 1.2 | 13 | 0.7 | 3.2 | 82 | 0.88 | 0.86 | 3 | 26.7 | 0.69
13 | COc1cc([C@@H]2c3cc4c(cc3[C@@H](O[C@@H]3O[C@@H]5CO[C@@H](C)O[C@H]5[C@H](O)[C@H]3O)[C@H]3COC(=O)C23)OCO4)cc(OC)c1O (some centres undefined) | 6 | 0.18 |  | 342 | 1.4 | 13 | 0.63 | 0.58 | 23 | 0.43 |  | 0.16 | 1.5 | 0.0051
14 | CO[C@@]1(NC(O)=c2sc(=C(C(N)=O)C(=O)O)s2)C(=O)N2C(C(=O)O)=C(CSc3nnnn3C)CS[C@@H]21 | 5.2 | 0.13 | 0.42 | 270 | 0.25 | 4 | 0.6 | 0.25 | 12.8 | 0.7 | 0.15 | 0.17 | 1.7 | 0.13
15 | C[C@@H](O)C1C(=O)N2C(C(=O)O)=C(S[C@@H]3CNC(C(=O)N(C)C)C3)[C@H](C)[C@H]12 (some centres undefined) | 1.3 | 0.3 | 3.9 | 60 | 0.22 | 4 | 0.726 | 0.14 | 26.4 | 0.5 | 0.87 | 0.23 | 7.5 | 0.666
16 | Nc1ccn([C@@H]2CO[C@H](CO)O2)c(=O)n1 | 6.9 | 1 | 2.4 | 4920 |  |  |  | 1.42 | 23 |  |  |  |  | 
17 | NC(Cc1ccc(O)c(O)c1)C(=O)O (centres undefined) | 1.2 | 1.7 | 23 | 78 | 0.76 | 23.7 |  |  | 109 |  | 0.76 |  |  | 
18 | Nc1ccn([C@H]2CC[C@@H](CO)O2)c(=O)n1 |  |  |  |  |  |  |  | 1 | 11.2 | 0.85 | 0.96 | 0.98 | 10.3 | 
19 | C[C@]12CC[C@@H]3c4ccc(O)cc4CC[C@H]3[C@@H]1CC[C@@H]2O | 0.7 | 1.2 | 30 | 102 |  |  |  | 5.9 | 69 | 0.053 |  |  |  | 
20 | CN(C)CCc1c[nH]c2ccc(C[C@H]3COC(=O)N3)cc12 | 4.6 | 1.8 | 6.7 | 216 |  |  |  | 3.53 | 29.4 |  |  |  |  | 
21 | CCCC(=O)OCOC(=O)C1=C(C)NC(C)=C(C(=O)OC)C1c1cccc(Cl)c1Cl (centres undefined) | 0.07 | 0.58 |  | 18 | 0.21 |  |  | 0.44 |  |  |  |  |  | 

Row | Compound | MRT [1] [h] | Vd [1] [L/kg] | clearance [1] [mL/min/kg] | half-life [1] [min] | Vd ([2]; dog) [L/kg] | clearance ([2]; dog) [mL/min/kg] | fraction unbound ([2]; dog) | Vd ([2]; rat) [L/kg] | clearance ([2]; rat) [mL/min/kg] | fraction unbound ([2]; rat) | fraction unbound [1] | Vd ([2]; monkey) [L/kg] | clearance ([2]; monkey) [mL/min/kg] | fraction unbound ([2]; monkey)
22 | Cn1c(=O)c2c(ncn2CC(O)CO)n(C)c1=O (centres undefined) | 1.5 | 0.42 | 4.8 | 102 |  |  |  | 1.04 | 24.7 |  |  |  |  | 
23 | CC(c1ncncc1F)[C@](O)(Cn1cncn1)c1ccc(F)cc1F (some centres undefined) | 4.4 | 2.2 |  | 336 | 0.88 |  | 0.49 | 1.78 |  | 0.44 | 0.42 |  |  | 
24 | CC[C@H](OC(C)=O)C(C[C@H](C)N(C)C)(c1ccccc1)c1ccccc1 | 26 | 8.3 | 5.4 |  | 5.9 | 28 |  |  |  |  | 0.2 |  |  | 
25 | COc1cc2nc(N3CCN(C(=O)C(C)OC)CC3)nc(N)c2cc1OC (centres undefined) | 13.7 | 0.44 | 0.53 |  |  |  |  | 5.9 | 44.2 |  |  |  |  | 
26 | Nc1cc(-c2ccncc2)c[nH]c1=O | 2.4 | 1.3 | 8.9 | 120 | 1.2 | 6 |  |  |  |  | 0.89 |  |  | 
27 | N[C@@H](CC(=O)N1CCn2c(nnc2C(F)(F)F)C1)Cc1cc(F)c(F)cc1F | 7.8 | 2.8 | 6 | 720 | 3.3 | 9.1 | 0.556 | 8.1 | 45 | 0.68 |  |  |  | 
28 | NCCC(O)(P(=O)(O)O)P(=O)(O)O | 12 | 1.8 | 2.5 | 1920 |  |  |  | 0.18 | 15.2 |  | 0.7 |  |  | 
29 | COc1cc(NCc2ccc3nc(N)nc(N)c3c2C)cc(OC)c1OC | 17 | 0.77 | 0.77 | 1020 | 11.7 | 33.2 | 1 | 9.2 | 71.1 |  | 0.05 | 1.56 | 8.5 | 0.1
30 | Nc1[nH]c(=O)ncc1F | 5.7 | 0.68 | 2 | 252 | 0.64 | 2.4 |  |  |  |  |  |  |  | 
31 | CC(C)c1cccc(C(C)C)c1O | 2.2 | 4.7 | 36 | 192 | 2.46 | 39.8 | 0.02 | 1.37 | 107 | 0.03 | 0.016 |  |  | 
32 | CN1CCN(c2c(F)cc3c(=O)c(C(=O)O)cn(CCF)c3c2F)CC1 | 11 | 1.6 | 2.4 | 516 | 1.3 | 1.6 | 0.51 | 1.3 | 5.8 | 0.49 |  | 1.2 | 4 | 0.607
33 | NC(=O)c1csc([C@@H]2O[C@H](CO)[C@@H](O)[C@H]2O)n1 | 7.6 | 1.1 |  | 354 | 0.99 |  | 0.85 |  |  |  | 0.47 | 2 |  | 1
34 | CCN1CCC[C@H]1CNC(=O)c1c(OC)ccc(Br)c1OC | 6.4 | 0.65 | 1.7 | 330 | 1.6 | 4.9 | 0.12 | 4.5 | 170 | 0.74 |  |  |  | 
35 | O=[N+]([O-])O[C@@H]1CO[C@H]2[C@@H]1OC[C@@H]2O | 5.8 | 0.7 | 2 | 246 | 0.82 | 6.9 |  |  | 2.5 |  |  |  |  | 
36 | O=C(NCC1CCCCN1)c1cc(OCC(F)(F)F)ccc1OCC(F)(F)F (centres undefined) | 21 | 6.1 |  | 720 | 1.1 |  | 0.3 | 6.9 |  |  |  |  |  | 
37 | c1ccc(C2(N3CCCCC3)CCCCC2)cc1 | 23 | 6.9 | 5.1 | 960 | 16.6 | 54.1 | 0.43 | 12.6 | 66.3 | 0.37 |  | 6.78 | 36.6 | 0.314
38 | CCC1(c2ccccc2)C(=O)NC(=O)NC1=O | 140 | 0.54 | 0.063 | 5940 | 0.79 | 0.1 | 0.54 | 1.02 | 0.8 | 0.64 |  |  |  | 
39 | CNC1(c2ccccc2Cl)CCCCC1=O (centres undefined) | 2.5 | 2.9 | 19 | 168 | 2.5 | 32.2 | 0.47 | 3.68 | 115 |  | 0.47 |  |  | 
40 | CC(C)(ON=C(C(=O)NC1C(=O)N2C(C(=O)O)=C(C[n+]3ccccc3)CS[C@H]12)c1csc(N)n1)C(=O)[O-] (some centres undefined) | 2.2 | 0.31 | 2.4 | 108 | 0.21 | 3.2 | 1 | 0.3 | 8.7 |  | 0.79 | 0.26 | 2.1 | 0.945
41 | CC1COc2c(N3CCN(C)CC3)c(F)cc3c(=O)c(C(=O)O)cn1c23 (centres undefined) | 11 | 1.6 | 2.5 | 534 | 1.3 | 23.2 | 0.51 | 1.42 | 13.2 |  |  |  |  | 0.71
